In experiment [1] the test system is LCLs (tumour B cells). As to the kind of experiment: LCL pulsed with cyclic or linear peptide with or without protease inhibitor cocktail; IFN-γ assayed for T cell recognition. The settings on record: 10 ug peptide. It counts as cell-based. The procedure: LCLs (tumour B cells) were incubated with or without a protease inhibitor cocktail for 2 hrs at 37° C. […] (SEQ ID No: 278). The protease cleavage sequence “FR” is recognised by Cathepsin B and the T cell epitope […] is restricted to HLA-A*0201. […] These cells were incubated with peptide-specific T cells overnight and IFN-γ assayed for T cell recognition of the processed peptide.

Experiment [2] deals with SW620 cells (colorectal cell line). Description: SW620 colorectal cell line pulsed with cyclic or linear peptide with or without protease inhibitor cocktail; IFN-γ assayed for T cell recognition. It counts as cell-based. The settings on record: 10 ug peptide. The procedure:
SW620 cells (colorectal cell line) incubated with or without a protease inhibitor cocktail for 2 hrs at 37° C. […] These cells were incubated with peptide-specific T cells overnight and IFN-γ assayed for T cell recognition of the processed peptide.
As a control for this, T cells alone were treated with the cyclic peptide. T cells should not process the cyclic form of the peptide but would be able to present the linear form and therefore the level of IFN-γ produced in this control would account for the amount of linear peptide present in the vial of cyclic peptide.

Experiment [3] deals with LCLs (tumour B cells). As to the kind of experiment: Plasma stability of cyclic peptide in LCL model (IFN-γ T cell recognition after plasma treatment). In kind it is in vitro ADME, human. The procedure: LCLs (tumour B cells) were incubated with or without a protease inhibitor cocktail (PIC) for 2 hrs at 37° C. […] These cells were incubated with peptide-specific T cells overnight and IFN-γ assayed for T cell recognition of the processed peptide.

A further experiment relates to LCL target cells. As to the kind of experiment: Comparison of the plasma stability of cyclic peptide and APEC in LCL model (IFN-γ T cell recognition after plasma treatment). In kind it is in vitro ADME, human. The settings on record: no target cells. The procedure: (§1) These cells were incubated with peptide-specific T cells overnight and IFN-γ assayed for T cell recognition of the processed peptide.

Another experiment relates to healthy B cells. As to the kind of experiment: Healthy B cells pulsed with cyclic or linear peptide with or without protease inhibitor cocktail; IFN-γ assayed for T cell recognition. The note with it: 10 ug peptide. It counts as cell-based. The procedure:
LCLs (tumour B cells) or healthy B cells were incubated with or without a protease inhibitor cocktail for 2 hrs at 37° C. […] The amino acid sequence of the cyclic peptide was […] (SEQ ID No: 278). The protease cleavage sequence “FR” is recognised by Cathepsin B and the T cell epitope […] is restricted to HLA-A*0201. The cyclic peptide was obtained from JPT Peptide Technologies. These cells were incubated with peptide-specific T cells overnight and IFN-γ assayed for T cell recognition of the processed peptide.

For experiment [4], the system named is SW620 cells (colorectal cell line). As to the kind of experiment: Plasma stability of cyclic peptide in colorectal cancer model (IFN-γ T cell recognition after plasma treatment). In kind it is in vitro ADME, human. The note with it: no target cells. The procedure: as §1
Where [5] appears, read: protease inhibitor cocktail 2 hrs at 37° C.

Turning to FRGGANLVPMVATVAA [cyclic peptide], the “response with the protease inhibitors compared with T cells cultured with the cyclic peptide alone” value (in the experiment on LCLs (tumour B cells) [1]; in experiment [2]) was “very similar to the level seen when T cells were cultured with the cyclic peptide alone” in each case. In addition, the “decrease in the T cell recognition in the presence of the protease inhibitors” value is roughly 75% in the experiment with LCLs (tumour B cells) [1] (setting [5]) and roughly 65% in experiment [2] (setting [5]). Also, the “T cell recognition (IFN-γ) of pulsed target cells, with versus without protease inhibitors” value is listed as “much larger response to IFN-γ when cultured in the absence of the protease inhibitors” with LCLs (tumour B cells) [1] (protease inhibitor cocktail 2 hrs at 37° C, peptide-specific T cells overnight) and “much larger response to IFN-γ when cultured in the absence of the protease inhibitors” in experiment [2] (setting [5]). In the experiment with LCLs (tumour B cells) [3] (LCLs pre-incubated with PIC, peptide treated 4 hrs with human plasma), the “effect of protease inhibitor cocktail on response to plasma-treated peptide” value was “there is a decrease when target cells were pre-incubated with the protease inhibitor cocktail”. For the same sequence, the “response of T cells alone labelled with the peptide, without and with serum treatment” value is on record as “very small response to the peptide which then disappears upon treatment of the peptide with serum” in the experiment with LCLs (tumour B cells) [3] (T cells alone, no target cells); “very small response to the peptide which then disappears upon treatment of the peptide with serum” with LCL target cells; “very small response to the peptide which then disappears upon treatment of the peptide with serum” in experiment [4]. For the same sequence, the “amount of IFN-γ with healthy B cells compared with LCL” value with healthy B cells is “significantly decreased amount of IFN-γ compared to the LCL treated with the cyclic peptide”. The “T cell recognition (IFN-γ) of pulsed healthy B cells, with versus without protease inhibitors” value in the experiment with healthy B cells (setting [5]) was “little difference in the response”.

The values are drawn from patent publication US20160206726A1, “IMMUNOTHERAPY” (priority 2013, published 2016).
